Patent US10513534B2, “2′-chloro nucleoside analogs for HCV infection” (priority 2012, dated 2019)
Where two headings read alike, the source gives them in different places.

What was measured:
HCV genotype 1b replicon = assay: HCV replicon assay (Zluc luciferase); format: cell-based
Description: Huh-7-derived cell line (Zluc) that harbors an HCV genotype 1b replicon and a luciferase reporter gene was grown in Dulbecco's Modified Eagle Medium (DMEM) supplemented with 10% fetal bovine serum, 2 mM GlutaMAX, 1% MEM nonessential amino acids, 100 IU/mL penicillin, 100 μg/mL streptomycin, and 0.5 mg/mL Geneticin® (G418). For dose response testing the cells were seeded in 96-well plates at 7.5×10^3 cells per well in a volume of 50 μL, and incubated at 37° C./5% CO2. Drug solutions were made up freshly in Huh-7 media as 2× stocks. Ten additional 5-fold dilutions were prepared from these stocks in DMEM without G418. At least three hours after Zluc cells were seeded, drug treatment was initiated by adding 50 μL of drug dilutions to the plates in duplicate. Final concentrations of drug ranged from 100 μM to […]. Cells were then incubated at 37° C./5% CO2. Alternatively, compounds were tested at two concentrations (1 μM and 10 μM). […] For this, media was removed from the plates via gentle tapping. Fifty microliters of ONE-glo luciferase assay reagent was added to each well. The plates were shaken gently for 3 min at room temperature and luminescence was measured on a Victor^3 V 1420 multilabel counter (Perkin Elmer) with a 1 second read time using a 700 nm cut-off filter. The EC50 values were calculated from dose response curves from the resulting best-fit equations determined by Microsoft Excel and XLfit 4.1 software. When screening at two fixed concentrations, the results were expressed as % inhibition at 1 μM and 10 μM.

Zluc cells = assay: Cytotoxicity evaluation, CellTiter-Blue Cell Viability Assay; conditions: Zluc cells, CellTiter-Blue
[1] = Liver triphosphate pharmacokinetics after single oral dose in CD-1 mice; format: in vivo; set-up: key: + ≤ 15; 15 < ++ ≤ 50; 50 < +++ ≤ 100; 100 < ++++; BLQ = below limit of quantitation; conditions: single oral dose 10 mg/kg in PEG 200;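 on Ms Liver TP AUC: pmol·h/g liver normalized to a 1 µmol/kg dose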;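 on Ms Liver TP Cmax: pmol/g liver normalized to a 1 µmol/kg dose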
Description: Internal standard solution was added to the homogenate followed by neutralization with 20% ammonium hydroxide solution and addition of 500 μL 1% formic acid. The tissue samples were extracted by weak anion exchange solid phase extraction (SPE). Post extraction, the eluates were evaporated under nitrogen, followed by reconstitution before injection onto the LC-MS/MS system.

[2] = Plasma nucleoside pharmacokinetics after single oral dose in CD-1 mice; format: in vivo; conditions: single oral dose 10 mg/kg in PEG 200;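 on Ms Plasma nucleoside AUC: pmol·h/mL plasma normalized to a 1 µmol/kg dose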
Description: Plasma samples were analyzed for nucleoside by LC-MS/MS. The internal standard (IS) was either 2′-MeG-D3 or tiapride. For protein precipitation and extraction, each plasma sample (50 μL) was treated with 500 μL of 0.2% formic acid in acetonitrile and 20 μL of the internal standard working solution. After vortexing and centrifugation, 500 μL of the sample extracts were transferred to a new plate, dried under N2 at ˜28° C. and reconstituted with 75 μL of 0.2% FA in water. The extracts were chromatographed on an Aquasil C18 column using a gradient system of 0.2% formic acid in water and acetonitrile. The analytes were detected and quantified by tandem mass spectrometry in positive ion mode on an MDS Sciex API5000 equipped with a Turbo Ionspray® interface. The calibration range was 0.500 (LLOQ) to 200 ng/mL in mouse plasma.

[3] = Zluc cells, 72 hours; read-out: HCV Replicon EC50

Row | SMILES | EC50 (HCV genotype 1b replicon; [3]) | CC50 (Zluc cells) | Ms Liver TP AUC [1] | Ms Liver TP Cmax [1] | Ms Plasma nucleoside AUC [2] | Ms Plasma nucleoside Cmax [2] | EC50 (HCV genotype 1b replicon; read-out: HCV Replicon EC50; Zluc cells, 72 hours)
1 | CC(C)OC(=O)C(C)NP(=O)(OCC1OC(n2cnc3c(=O)[nH]c(N)nc32)C(C)(Cl)C1O)Oc1ccccc1 (mixture of isomers) [Compound 21ii Mixture of P-Diastereoisomers] | > 10 µM | > 50 µM | – | – | – | – | –
2 | CCOc1nc(N)nc2c1ncn2[C@@H]1O[C@H](COP(=O)(N[C@@H](C)C(=O)OC(C)C)Oc2ccccc2)[C@@H](O)[C@@]1(C)Cl (single isomer, unassigned) [Compound 17ii Diastereomer 2] | 1 to 10 µM | > 50 µM | BLQ | BLQ | – | – | –
3 | CC(C)OC(=O)[C@H](C)NP(=O)(OC[C@H]1O[C@@H](n2cnc3c(=O)[nH]c(N)nc32)[C@](C)(Cl)[C@@H]1O)Oc1ccccc1 (single isomer, unassigned) [Compound 21ii Diastereomer 2] | > 10 µM | > 50 µM | – | – | – | – | –
4 | CC(C)(CO)C(=O)SCCOP(=O)(NCc1ccccc1)OC[C@H]1O[C@@H](n2ccc(=O)[nH]c2=O)[C@](C)(Cl)[C@@H]1O (single isomer, unassigned) [Compound 54 Diastereomer 1] | – | – | + (+ ≤ 150) | ++ (15 < ++ ≤ 50) | +++ (500 < +++ ≤ 1500) | +++ (50 < +++ ≤ 100) | –
5 | CC(C)(CO)C(=O)SCCOP(=O)(NCc1ccccc1)OC[C@H]1O[C@@H](n2ccc(=O)[nH]c2=O)[C@](C)(Cl)[C@@H]1O (single isomer, unassigned) [Compound 54 Single Diastereoisomer] | 1 to 10 µM | > 50 µM | – | – | – | – | –
6 | CCOC(=O)COP(=O)(OC[C@H]1O[C@@H](n2ccc(=O)[nH]c2=O)[C@](C)(Cl)[C@@H]1O)Oc1ccccc1 (single isomer, unassigned) [Compound 72 Diastereomer 2] | – | – | – | – | – | – | > 10 µM
7 | CC(C)OC(=O)[C@H](C)NP(=O)(OC[C@H]1O[C@@H](n2cc(F)c3c(N)ncnc32)[C@](C)(Cl)[C@@H]1O)Oc1ccccc1 (single isomer, unassigned) [Compound 207ii Diastereomer 2] | > 10 µM | > 50 µM | – | – | – | – | –
8 | CC(C)OC(=O)[C@H](C)NP1(=O)OC[C@H]2O[C@@H](n3cnc4c(N)ncnc43)[C@](C)(Cl)[C@@H]2O1 (single isomer, unassigned; diastereoisomer 1) [Compound 77ii Diastereoisomer 1] | 1 to 10 µM | > 50 µM | – | – | – | – | –
9 | CC(COC(=O)C(C)C)NP1(=O)OCC2OC(n3cnc4c(N)ncnc43)C(C)(Cl)C2O1 (single isomer, unassigned; diastereoisomer 1) [Compound 95 Diastereoisomer 1] | 0.25 to 1 µM | > 50 µM | – | – | – | – | –
10 | CC(C)OC(=O)[C@H](C)NP1(=O)OC[C@H]2O[C@@H](n3cnc4c(N)ncnc43)[C@](C)(Cl)[C@@H]2O1 (single isomer, unassigned; diastereoisomer 2) [Compound 77ii Diastereoisomer 2] | 0.25 to 1 µM | > 50 µM | – | – | – | – | –
11 | CC(COC(=O)C(C)C)NP1(=O)OCC2OC(n3cnc4c(N)ncnc43)C(C)(Cl)C2O1 (single isomer, unassigned; diastereoisomer 2) [Compound 95 Diastereoisomer 2] | 0.25 to 1 µM | > 50 µM | – | – | – | – | –
12 | CC(C)OC(=O)[C@H](C)NP1(=O)OC[C@H]2O[C@@H](n3ccc(=O)[nH]c3=O)[C@](C)(Cl)[C@@H]2O1 (single isomer, unassigned; diastereomer 1) [Compound 38ii Diastereomer 1] | – | – | + (+ ≤ 150) | + (+ ≤ 15) | +++ (500 < +++ ≤ 1500) | +++ (50 < +++ ≤ 100) | –
13 | CC(C)OC(=O)[C@H](C)NP(=O)(OCCSC(=O)C(C)(C)C)OC[C@H]1O[C@@H](n2ccc(=O)[nH]c2=O)[C@](C)(Cl)[C@@H]1O (single isomer, unassigned; diastereomer 1) [Compound 43ii Diastereomer 1] | 0.25 to 1 µM | > 50 µM | – | – | – | – | –
14 | CC(C)OC(=O)[C@H](C)NP1(=O)OC[C@H]2O[C@@H](n3cnc4c(N)ncnc43)[C@](C)(Cl)[C@@H]2O1 (single isomer, unassigned; diastereomer 1) [Compound 77ii Diastereomer 1] | – | – | ++++ (1500 < ++++) | ++++ (100 < ++++) | + (+ ≤ 150) | + (+ ≤ 15) | –
15 | CC(C)C(=O)OC[C@H](C)NP1(=O)OC[C@H]2O[C@@H](n3cnc4c(N)ncnc43)[C@](C)(Cl)[C@@H]2O1 (single isomer, unassigned; diastereomer 1) [Compound 95i Diastereomer 1] | – | – | + (+ ≤ 150) | + (+ ≤ 15) | + (+ ≤ 150) | + (+ ≤ 15) | –
16 | CC(C)OC(=O)[C@@H](C)NP(=O)(OC[C@H]1O[C@@H](n2ccc(=O)[nH]c2=O)[C@](C)(Cl)[C@@H]1O)SC1CCCC1 (single isomer, unassigned; diastereomer 1) [Compound 206i Diastereomer 1] | – | – | +++ (500 < +++ ≤ 1500) | ++++ (100 < ++++) | +++ (500 < +++ ≤ 1500) | +++ (50 < +++ ≤ 100) | –
17 | CC(C)OC(=O)[C@H](C)NP1(=O)OC[C@H]2O[C@@H](n3ccc(=O)[nH]c3=O)[C@](C)(Cl)[C@@H]2O1 (single isomer, unassigned; diastereomer 2) [Compound 38ii Diastereomer 2] | – | – | +++ (500 < +++ ≤ 1500) | ++ (15 < ++ ≤ 50) | +++ (500 < +++ ≤ 1500) | ++++ (100 < ++++) | –
18 | CC(C)(CO)C(=O)SCCOP(=O)(NCc1ccccc1)OC[C@H]1O[C@@H](n2ccc(=O)[nH]c2=O)[C@](C)(Cl)[C@@H]1O (single isomer, unassigned; diastereomer 2) [Compound 54 Diastereomer 2] | – | – | + (+ ≤ 150) | + (+ ≤ 15) | +++ (500 < +++ ≤ 1500) | ++ (15 < ++ ≤ 50) | –
19 | CC(C)OC(=O)[C@H](C)NP1(=O)OC[C@H]2O[C@@H](n3cnc4c(N)ncnc43)[C@](C)(Cl)[C@@H]2O1 (single isomer, unassigned; diastereomer 2) [Compound 77ii Diastereomer 2] | – | – | ++++ (1500 < ++++) | ++++ (100 < ++++) | + (+ ≤ 150) | + (+ ≤ 15) | –
20 | CC(C)C(=O)OC[C@H](C)NP1(=O)OC[C@H]2O[C@@H](n3cnc4c(N)ncnc43)[C@](C)(Cl)[C@@H]2O1 (single isomer, unassigned; diastereomer 2) [Compound 95i Diastereomer 2] | – | – | ++ (150 < ++ ≤ 500) | + (+ ≤ 15) | + (+ ≤ 150) | + (+ ≤ 15) | –
21 | CC(C)OC(=O)[C@@H](C)NP(=O)(OC[C@H]1O[C@@H](n2ccc(=O)[nH]c2=O)[C@](C)(Cl)[C@@H]1O)SC1CCCC1 (single isomer, unassigned; diastereomer 2) [Compound 206i Diastereomer 2] | – | – | +++ (500 < +++ ≤ 1500) | +++ (50 < +++ ≤ 100) | +++ (500 < +++ ≤ 1500) | +++ (50 < +++ ≤ 100) | –
